The values that follow come from PubChem BioAssay AID743417 (Broad Institute, 2014).

Each structure is given as a SMILES string. Records with an inconclusive call do not appear. Active and inactive are the calls of the source.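 The calls were made as follows: active = compounds lowering the luciferase signal with a fitted half-maximal dose at most twice their top valid dose (cut at about 30 µM in these data); inconclusive = flat fits with moderate signal loss, or poor fits; inactive = the rest.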

The test deals with Clone20 osteoblast Shn3 3'UTR firefly luciferase, 24 h. The test can be described thus: Schnurri-3 3'UTR-luciferase signal suppressors – cell-based, Clone20 osteoblasts, luminescence, dry powder, set 2, dose response (AID 743417).
Consider `CC(C)NCC(O)COc1cccc2ccccc12` (stereo unspecified), for which the AC50 (commonly the midpoint of the concentration-response curve, whichever way the signal moves) is 23.6 µM.
Under `Cc1ccc(Nc2c(-c3ccccn3)nc3cc(C)ccn23)cc1` stands 1.36 µM; under `Cc1cc(Cl)c(S(=O)(=O)N2CCSCC2)cc1OCC(=O)NC1CCCCC1`, 4.11 µM; under `CC1CCN(c2ccc(-c3cccc(NC(=O)C(F)(F)F)c3)nn2)CC1`, 2.74 µM.
As to `O=C(c1nnsc1S(=O)(=O)c1ccc(Cl)cc1)N1CCOCC1`, the AC50 is 7.74 µM.
Next, `Cc1ccc(CS(=O)(=O)c2ncc(Cl)c(C(=O)Nc3nnc(C(C)C)s3)n2)cc1`: 1.52 µM.
For the compound `CC(C)(CNC(=O)c1ccc(Cl)c(S(=O)(=O)N2CCc3ccccc3C2)c1)N1CCOCC1`, the AC50 is 10.5 µM.
Under `NC(CCc1ccccc1)c1csc(NC(=O)Nc2ccccc2Oc2ccccc2)n1` (stereo unspecified) stands 7.18 µM; under `O=S(=O)(Nc1cccc2ncccc12)c1cccs1`, 4.3 µM.
For `O=[N+]([O-])c1c(NCCO)cc(Sc2nc3ccccc3s2)c2nonc12`, the AC50 was 1.64 µM.
On to `COc1ccc(C(CCNCc2ccc(OC(C)C)cc2)c2ccccc2OC)cc1` (stereo unspecified), for which the AC50 was 6.44 µM.
Under `O=C1C=C(c2ccnc3cc(Cl)ccc23)C[C@@H](c2ccc3c(c2)OCO3)C1` stands 1.36 µM.
Under `COc1ccc2c(c1OC)C(=O)N1c3ccccc3C(=O)N(c3ccccc3F)C21` (stereo unspecified) stands 11.6 µM.
As for `O=C(NCc1ccc2c(c1)OCO2)c1nc(S(=O)(=O)Cc2ccccc2F)ncc1Cl`, the AC50 is 5.19 µM.
For the compound `CN(c1ccccc1)S(=O)(=O)c1cccc(NC(=O)CSc2nncs2)c1`, the AC50 is 1.44 µM.
Under `COc1ccc(-c2nc(CN3CCN(c4ncnc5ccccc45)CC3)c(C)o2)c(OC)c1` stands 6.38 µM.
With `CSc1nc(N2CCN(Cc3ccc4c(c3)OCO4)CC2)c2ccccc2n1`, the AC50 is 24.1 µM.
As for `C=CCSc1nc2ccccc2n1C(=O)/C=C/c1ccc(OC)c(OC)c1`, the AC50 was 1.31 µM.
Under `c1ccc(CC2CCN(c3ncnc4sccc34)CC2)cc1` stands 0.362 µM; under `C=CCn1c(-c2ccc(S(=O)(=O)N3CCOCC3)cc2)csc1=Nc1ccccc1`, 1.52 µM; under `Cc1ccc(OCCN2CCN(c3ncnc4sc(C)c(C)c34)CC2)cc1`, 0.754 µM.
As for `CCC1CCCCN1S(=O)(=O)c1ccc(NC(=O)c2ccncc2)cc1` (stereo unspecified), the AC50 was 3.43 µM.
Next, `NC1=NC[C@H](c2ccccc2)N1CCCCC1CCCCC1`: 4.23 µM; `Cc1nn(-c2ccccc2)c(C)c1C(=O)OC(C)C(=O)NC1CCCCC1` (stereo unspecified): 8.19 µM; `O=C(Nc1ccc([N+](=O)[O-])cc1)Nc1ccc(OC(F)F)c(Cl)c1`: 3.59 µM.
Under `COc1ccc(CNc2ncnc3c2[nH]c2ccccc23)cc1` stands 4.19 µM.
For `O=C1OC[C@H](Cc2ccc3c(c2)OCO3)/C1=C\c1ccc2c(c1)OCO2`, the AC50 was 2.66 µM.
Next, `CCc1ccc(CNCc2ccc(OCC(O)CN(C)Cc3ccccc3)cc2)nc1` (stereo unspecified): 4.43 µM; `CN(Cc1ccc(Cl)c(Cl)c1)C(=O)c1cccc(S(=O)(=O)N2CCN(Cc3ccccc3)CC2)c1`: 3.47 µM; `CCN(CC)CC(C)(C)C(=O)/C=C/c1ccc(/C=C/C(=O)C(C)(C)CN(CC)CC)cc1`: 0.468 µM.
Next, `CC1CC(C)(O)CC(C(O)CC2CC(=O)NC(=O)C2)C1=O` (stereo unspecified): 0.339 µM.
Take `CC(=O)N1CCc2c(sc(NC(=O)c3ccc([N+](=O)[O-])o3)c2C(N)=O)C1`: the AC50 is 1.85 µM.
As for `Cc1cc(C)c2sc(NNC(=O)c3ccc(S(=O)(=O)N4CCc5ccccc5C4)cc3)nc2c1`, the AC50 was 1.8 µM.
Under `CC(C)n1c(/C=C/[C@H](O)C[C@H](O)CC(=O)O)c(-c2ccc(F)cc2)c2ccccc21` stands 1.42 µM; under `O=C1N(c2ccccc2)C[C@@H]2C[C@@H](c3cc4ccccc4o3)N3CCC[C@@]123`, 0.536 µM; under `COc1ccccc1CNc1nc(NCc2ccccc2SC)c2sccc2n1`, 4.48 µM.
Consider `CCOC(=O)C1CCN(c2cc3c(cc2NC(=O)c2ccccc2Br)n(C)c(=O)n3C)CC1`, for which the AC50 is 21.3 µM.
Next, `FC(F)(F)c1cccc(NC(=S)NC(c2ccccc2)c2ccccc2)c1`: 7.17 µM.
Under `COc1ccc(NC(=O)/C(Cl)=C(/Cl)S(=O)Cc2ccccc2)cn1` (stereo unspecified) stands < 0.26 µM; under `COC(=O)C1=C(c2ccc(-c3ccccc3)c(F)c2)C[C@@H]2CC[C@H]1N2C(=O)N1CCCC1`, 6.06 µM.
Under `CCN(c1ccccc1)S(=O)(=O)c1ccc(NC(=O)c2nc(S(C)(=O)=O)ncc2Cl)cc1` stands 0.562 µM; under `COc1ccc(CC(N)c2csc(NC(=O)NC(c3ccccc3)c3ccccc3)n2)cc1` (stereo unspecified), 6.4 µM.
For `CC(Oc1cccc(Br)c1)C(=O)NNC(=O)c1ccccn1` (stereo unspecified), the AC50 was 3.36 µM.
On to `CCC(C)C1NC(=O)C(NC(=O)C(CC(C)C)N(C)C(=O)C2CCCN2C(=O)C(C)O)C(C)OC(=O)C(Cc2ccc(OC)cc2)N(C)C(=O)C2CCCN2C(=O)C(CC(C)C)NC(=O)[C@H](C)C(=O)[C@H](C(C)C)OC(=O)CC1O` (stereo partly specified), for which the AC50 was < 0.26 µM.
Next, `O=c1[nH]c2ccccc2n1C1CCN(C(c2cccs2)c2nnnn2Cc2ccccc2)CC1` (stereo unspecified): 2.98 µM; `CCOc1ccc2nc3cc(NCc4ccc(OC)cc4)ccc3c(N)c2c1`: 6.69 µM; `COc1ccc(CC2(CO)CCN(CC3=Cc4cc(Cl)ccc4OC3)CC2)cc1`: 1.33 µM.
Under `COc1cc(N2C(=O)C=CC2=O)ccc1N1C(=O)C=CC1=O` stands 2.32 µM; under `Cc1sc2ncnc(NC3CCN(Cc4ccccc4)CC3)c2c1C`, 1.02 µM.
Next, `CC(C)c1ccccc1-n1c(SCC(=O)N2CCc3ccccc3C2)nc2ccccc2c1=O`: 2.99 µM; `CC(C)(C)NC(=O)NC(=O)CN1CCN(c2ccc(O)cc2)CC1`: 1.9 µM; `COc1ccccc1-c1cc(C(F)(F)F)nc(S(=O)(=O)CCCC(=O)Nc2cc(C)on2)n1`: 6.57 µM.
Take `S=C(NNc1ccnc2cc(Cl)ccc12)Nc1ccc(Cl)cc1Cl`: the AC50 is 4.9 µM.
Regarding `CC(C)(C)n1nnnc1C(c1cccs1)N1CCCC2(CCCCC2)C1` (stereo unspecified), the AC50 is 21.7 µM.
Under `Cc1ccccc1OCC(O)CNC1CCC(NCC(O)COc2ccccc2C)CC1` (stereo unspecified) stands 4.5 µM; under `COc1ccccc1CNc1nc(NCc2ccc(C(C)C)cc2)c2sccc2n1`, 6.81 µM.
Next, `Cc1cccc(Nc2nc(NCc3ccco3)c3ccccc3n2)c1`: 2.05 µM.
Next, `COc1ccc(OC)c(NC(=O)c2nc(S(=O)(=O)Cc3ccccc3)ncc2Cl)c1`: 2.08 µM.
As to `CN1/C(=C/C(=O)c2nc(S(C)(=O)=O)ncc2Cl)C(C)(C)c2ccccc21`, the AC50 is 5.21 µM.
Consider `CSc1nc(N)nc2c1ncn2CC(=O)N1CCN(Cc2c(C)cc(C)cc2C)CC1`, for which the AC50 is 0.526 µM.
On to `Cc1cc(C)c2nc(NNC(=O)c3ccc(S(=O)(=O)N4CCc5ccccc5C4)cc3)sc2c1`, for which the AC50 was 1.98 µM.
As to `CCCN1C(=O)S/C(=C\c2ccc(N3CCOCC3)o2)C1=O`, the AC50 was 6.37 µM.
For the compound `CCOC(=O)Cc1csc(SCC(=O)c2c(N)n(CC(C)C)c(=O)n(C)c2=O)n1`, the AC50 was 2.35 µM.
Next, `CCn1c(=NC(=O)CCS(=O)(=O)c2ccccc2)sc2cccc(OC)c21`: 1.28 µM; `CS(=O)(=O)N1CCN(c2ccc(NC(=O)c3ccc([N+](=O)[O-])o3)cc2)CC1`: 5.65 µM; `O=C(NNC(=O)C(c1ccccc1)c1ccccc1)c1ccccn1`: 2.87 µM.
Under `O=C(Nc1nc(-c2ccccn2)cs1)c1ccc(Cl)s1` stands 0.817 µM; under `CCOC(=O)c1ccc(NC(=O)c2nc[nH]c2C(=O)NCCNC(=O)c2[nH]cnc2C(=O)Nc2ccc(C(=O)OCC)cc2)cc1`, 5.51 µM; under `COc1ccc(C2=Nn3c([n+](C)c4ccccc43)SC2)cc1`, 1.16 µM.
With `C=CCSc1nc2ccccc2n1C(=O)/C=C/c1cc(OC)c(OC)c(OC)c1`, the AC50 is 1.13 µM.
Next, `CC(=O)c1cn(CCOc2cc(C)ccc2C)c2ccccc12`: 1.18 µM.
Under `CCCCN1CC(COCc2ccccc2)Oc2cccc(Oc3ccc(C)cc3)c2S1(=O)=O` (stereo unspecified) stands 10.7 µM.
Under `C=C1C(=O)[C@]23C[C@H]1CCC2[C@@]1(C)C(C[C@@H]3O)[C@](C)(C(=O)OC)CC[C@@H]1O` (stereo partly specified) stands 2.58 µM.
For `COc1ccc(CNC(=O)c2nc(S(=O)(=O)Cc3ccccc3)ncc2Cl)cc1`, the AC50 is 0.956 µM.
Next, `C=C(C)C(=O)O[C@H]1C/C(C)=C\C(=O)/C=C(\C)[C@H](O)[C@@H]2OC(=O)C(=C)[C@@H]21`: 3.02 µM; `CN(C)C1=NC[C@H](Cc2ccccc2)N1CCCCc1ccccc1`: 8.01 µM; `Cc1cc(=O)oc2c3c(cc(OCC(=O)Nc4ccc(CCO)cc4)c12)OC(C)(C)CC3`: > 70 µM (inactive).
Turning to `Cc1c(C(C)C)c(=O)n(-c2ccc(S(=O)(=O)NC3CCCCC3)cc2)n1C`, the AC50 was 1.06 µM.
Next, `CCCc1nc([N+](=O)[O-])c(S(=O)(=O)c2ccccc2)n1CC(C)C`: 7.39 µM.
Take `Cc1ccc(CNc2nc(NCC3CC3)nc3ccsc23)c(C)c1`: the AC50 is 3.95 µM.
Under `O=C1c2c(O)ccc(O)c2C(=O)c2c(NCCNCCO)ccc(NCCNCCO)c21` stands 0.658 µM; under `CC[C@H](C)C(=O)O[C@H]1C[C@@H](C)C=C2C=C[C@H](C)[C@H](CC[C@@H]3C[C@@H](O)CC(=O)O3)[C@H]21`, 1.62 µM; under `O=C(Sc1cccc2cccnc12)c1ccccc1Br`, 0.383 µM.
Next, `CC(=O)OCC(=O)[C@@]1(O)CC[C@H]2[C@@H]3CCC4=CC(=O)CC[C@]4(C)[C@H]3C(=O)C[C@@]21C`: 28.3 µM.
Under `O=C(NCc1ccc2c(c1)OCO2)c1nc(S(=O)(=O)Cc2ccccc2)ncc1Cl` stands 6.4 µM.
Take `COc1ccccc1N(C)S(=O)(=O)c1ccc(C(=O)Nc2cc(F)ccc2C)cc1`: the AC50 was 13.8 µM.
Take `Fc1ccc(/C=C2\CCCC3=C2Nc2ncnn2C3c2ccc(F)cc2)cc1` (stereo unspecified): the AC50 was 8.47 µM.
Under `OC[C@@H]1CN(Cc2ccncc2)C[C@H](n2cnc3c(N4CCN(c5ccccc5)CC4)ncnc32)O1` stands 2.38 µM; under `Cc1c(CCCl)c(Cl)n2c(nc3ccccc32)c1C#N`, 0.912 µM; under `Fc1ccc2[nH]c3c(N4CCc5ccccc5C4)ncnc3c2c1`, 0.466 µM.
Next, `CC(C)(C)c1ccc(CN(Cc2ccccc2)C(c2ccccn2)c2nnnn2C(C)(C)C)cc1` (stereo unspecified): 13.5 µM.
